Results: paper PMC3013143 (PLoS ONE, 2010)
No end group written: not given here.

Legend:
human serum = details: 37°C, up to 2 h
[1] = molecular target: T1, recombinant extracellular domain of human CAIX (Homo sapiens, UniProt Q16790); assay: Binding of 125I-labeled CaIX-P1 on immobilized recombinant extracellular domain of CAIX; details: co-incubation of ^125I-CaIX-P1 with unlabeled CaIX-P1 at 10^−4 M, p<0.05, n = 3; read-out: Binding inhibition of the radioligand
T1 construct: Fc (Fc gamma, from pSEC-EGP-2-Fcγ vector) (C); made in house; host or cells: Flp-In-293 human embryonic kidney cells (secreted into medium)
Method: Binding of ^125I-labeled CaIX-P1 was performed on immobilized recombinant extracellular domain of human CAIX and of EGFR. For immobilization the target proteins CAIX and EGFR were incubated at a concentration of 50 nM in 24-well plates for 24 h. Thereafter, the plates were washed three times with 500 µl PBS pH 7.4. Incubation with ^125I-CaIX-P1 was performed in 500 µl PBS pH 7.4 for 30 min. After incubation the plates were washed three times with 500 µl ice cold PBS pH 7.4. The target proteins were degraded with 500 µl NaOH 0.3 mol/L and the radioactivity was counted with a γ-counter. Bound radioactivity was calculated as percentage applied dose. In order to evaluate the specificity of the radioligand binding, competition experiments with the unlabeled CaIX-P1 peptide at a concentration of 10^−4 M were carried out.

[2] = tested on: CAIX positive SKRC 52 cells; format: cell-based, human; details: 24 h
Method: For binding experiments 3×10^5 CAIX positive SKRC 52 cells were seeded into 6-well plates and cultivated in 3 mL of incubation medium at 37°C for 24 h. After cell blocking with RPMI 1640 (without FCS) containing 1% BSA, the medium was replaced with 1 mL of fresh medium (without FCS) containing 0.5–1.5×10^6 cpm of ^125I-labeled peptide and incubation was performed for time periods varying from 10 min to 6 h at 37°C. To determine specific versus nonspecific binding, the cells were incubated with the unlabeled CaIX-P1 peptide at concentrations varying from 10^−4 to 10^−10 mol/L. Octreotide was used as negative control competitor. After incubation the medium was removed and the cells were washed three times with 1 mL ice cold PBS in order to remove the unbound radiolabeled peptide. Subsequently, the cells were lysed with 0.5 mL NaOH 0.3 mol/L and the radioactivity was measured with a γ-counter. Bound radioactivity was calculated as percentage applied dose per 10^6 cells. Binding experiments were also performed on HCT 116 cells and on human umbilical vein endothelial cells (HUVEC) at various cell densities. CAIX negative CaKi-2 cells were used as negative control.

Stability in human serum = format: in vitro ADME; details: 37°C
Method: The stability of CaIX-P1 was investigated in human serum. The peptide was incubated at 37°C in human serum at a concentration of 10^−4 mol/L. At time points varying from 5 min to 2 h aliquots were taken, mixed with equal volume acetonitrile to precipitate serum proteins and centrifuged for 5 min at 13,000 rpm. The supernatant was analyzed with HPLC on a Chromolith Performance RP-18e 100×4.6 mm column (Merck) using a linear gradient of water and acetonitrile containing 0.1% trifluoroacetic acid. Samples of CaIX-P1 and its fragments in human serum were isolated and analyzed by MALDI-TOF mass spectrometry.

Row | Sequence | cleaved bond (human serum) | inhibition at 100 µM [1] [%] | IC50 [2] [µM] | Main product of serum degradation (Stability in human serum; 10^−4 mol/L, appeared after 10 min, HPLC isolation and MALDI-TOF mass spectrometry) | half-life (Stability in human serum; peptide 10^−4 mol/L, aliquots 5 min to 2 h, acetonitrile precipitation, HPLC) [min]
1 | YNTNHVPLSPKY | tyrosine1-N2, major, 10 min |  |  |  | 
2 | YNTNHVPLSPKY [CaIX-P1] |  | 93 | 1.75 ± 0.49 | lacking the N-terminal tyrosine | ~25
